Measured values as given in US10654896B2, “FoxP3-binding peptides and uses thereof” (FUNDACIÓN PARA LA INVESTIGACIÓN MÉDICA APLICADA, priority 2016, dated 2020).

Key:
human FOXP3 (FOXP3-6His) = target: T1, human FOXP3 (FOXP3-6His) (Homo sapiens, UniProt Q9BZS1); assay: Peptide binding to FOXP3 by surface plasmon resonance (SPR); details: peptides 1-20 μM; ratio to p60 (SEQ ID NO: 1)
T1 construct: 6xHis (C); made in house; host or cells: E. coli BL21 (DE3)
T1 sequence (Q9BZS1 1-431): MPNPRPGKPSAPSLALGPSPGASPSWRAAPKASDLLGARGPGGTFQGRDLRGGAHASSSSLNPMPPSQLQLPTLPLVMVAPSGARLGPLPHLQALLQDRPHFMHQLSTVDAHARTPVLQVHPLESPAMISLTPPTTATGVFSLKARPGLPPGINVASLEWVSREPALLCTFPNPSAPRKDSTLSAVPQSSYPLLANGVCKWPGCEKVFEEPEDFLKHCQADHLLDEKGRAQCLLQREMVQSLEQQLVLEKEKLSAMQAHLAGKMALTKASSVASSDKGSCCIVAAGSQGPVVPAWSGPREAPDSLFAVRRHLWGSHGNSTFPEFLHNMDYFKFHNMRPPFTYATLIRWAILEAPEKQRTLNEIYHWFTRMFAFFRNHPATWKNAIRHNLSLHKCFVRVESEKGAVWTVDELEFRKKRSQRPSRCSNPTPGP
Description: (§1) Plasmid pET20b FOXP3-His was generated to produce the human FOXP3 tagged with 6 histidines at the C terminus of the protein. Briefly, plasmid pDEST15-FOXP3 (provided by Dr. Casal, Madrid, Spain) was used as template to amplify FOXP3 by PCR using the primers Upper FOXP3 Ndel catatgcccaaccccaggc (SEQ ID NO: 55) and Lower FOXP3 […] (SEQ ID NO: 56). The resulting fragment was subcloned in pET20b at Ndel and NotI sites. pET45b His-Runx1 was obtained by PCR of activated human CD4 T cells obtained from healthy volunteers (after the signature of an informed consent) using the primers Upper Runx1 atgcgtatccccgtagatg (SEQ ID NO: 57) and Lower Runx1 […] (SEQ ID NO: 58) and the fragment was cloned in pcDNA3.1. Then, pET45b and pcDNA3.1-Runx1 were digested with BamHI and NotI and ligated to obtain pET45b-Runx1. Plasmids were used to transform BL21 cells (DE3; Novagen, Schwalbach, Germany) for the expression of the recombinant protein. The transformed BL21 cells were grown in LB medium at 37° C. (1 liter of final culture medium) (with ampicilin 0.1 mg/ml). Once the OD of the culture was between 0.5 and 1.0, IPTG (0.4 mM, final concentration) was added. Bacteria were then cultured overnight in agitation and centrifuged for 10 min at 8000 rpm. Cell pellet was then resuspended in 4 ml Tris-HCl 0.1 M and frozen at −80° C. Cell pellet was then thawed and incubated with lisozyme (25 KU) and a protease inhibitor cocktail for 15 min at 30° C. before cell lysis induced with a French-press. The resultant pool was then centrifuged during 20 min at 11.000 rpm). The recombinant protein was purified from the soluble fraction of French-press cell extracts by affinity chromatography (Histrap, Pharmacia) following manufacturer's instructions and using an FPLC platform (AKTA, Pharmacia). Plasmid pDEST15-FOXP3 encoding the fusion protein GST-FOXP3 (GST fused to the isoform A from human FOXP3 gene), was transformed into BL21 cells for the expression of the recombinant protein. GST-FOXP3 protein was purified from the soluble fraction of cell extracts obtained, as described above, by affinity chromatography (GSTrap; Amersham, Piscataway, N.J.) using a fast protein liquid chromatography platform (AKTA; Amersham) following manufacturer's instructions. The eluted proteins were desalted using Hitrap desalting columns (Pharmacia) and analyzed by SDS-PAGE using Coomassie blue (Bio-Safe Coomassie reagent; Bio-Rad, Hercules, Calif.) and by Western blot.
Screening of peptide binding to FOXP3 was performed by surface plasmon resonance (SPR) using ProteOn XPR36 (Bio-Rad, Hercules Calif., USA) optical biosensor. Recombinant protein FOXP3-6His was produced and purified from E. coli as disclosed in previous section and was immobilized covalently onto a GLM sensor chip (176-5012, Bio-Rad) using sulfo-NHS and EDC (Bio-Rad) coupling reagents and the manufacturer's instructions. After protein immobilization, chip surface was treated with ethanolamine to deactivate the excess of reactive esters.
Individual solutions of the peptides to be tested (1-20 μM) were injected by triplicate in running buffer (Phosphate buffered saline, 0.005% (v/v) Tween 20, pH 7.4) at a flow of 30 μl/min. The interspot signal (obtained in the chip surface not immobilized with protein) was used as reference. The results are summarized in Table 6 below as the ratio Peptide of the invention/p60.

[1] = target: T2, FOXP3/Runx1 heterodimerization (Homo sapiens, UniProt Q9BZS1); assay: FOXP3/Runx1 heterodimerization inhibition (Alphascreen); type: biochemical; details: peptide 100 μM
T2 construct: made in house; host or cells: E. coli BL21 (DE3)
T2 sequence (Q9BZS1 1-431): T1 sequence (Q9BZS1 1-431)
Description: as §1
It has been described that dimerization of FOXP3 is required for its function as a transcriptional regulator. Moreover, interaction between FOXP3 and the transcription factor Runx1, is crucially required for normal hematopoiesis including thymic T-cell development, but also for Treg suppressor activity (Reviewed in Lozano et al, Front Oncol. 2013, 3:294). Both activities are mediated by the intermediate region of Foxp3, which is the area of interaction between P60 and Foxp3. Thus, we studied the effect of P60 and their mutants on the FOXP3/Runx1 heterodimerization, as well as FOXP3/FOXP3 homodimerization by Alphascreen technology according to the manufacturer's instructions (Perkin Elmer, Benelux). AlphaScreen™ is a bead-based technology that is designed to measure the proximity of donor and acceptor beads conjugated to biomolecules of interest.
To measure Foxp3-Runx1 interactions, Foxp3-GST and […] proteins were used.
Recombinant Runx1 expressed in E. Coli with a hexa-histidine tag (obtained as disclosed in section (1) above) was captured by nickel chelate acceptor beads following manufacturer's instructions, whereas the recombinant FOXP3 expressed with a GST tag was captured by glutathione donor beads (Perkin Elmer) following manufacturer's instructions. His-tagged Runx1 (46 nM final concentration) was incubated with 100 nM GST-FOXP3 and the peptides to be tested (added at different concentrations from 1 to 100 μM) for 1 h at room temperature. […]

[2] = Human liver microsomal stability; type: in vitro ADME; details: for remaining at 20 min, 1 μM: read-out: % Remaining after 20 min; for remaining at 1 h, 1 μM: 60 min, read-out: % Remaining after 60 min
Experimental: (§2) The data collected were analyzed to calculate a half-life (t1/2, min) for tested peptides at a final concentration of 1 μM. Briefly, 5 μL of stock solution of tested peptide (10 mM) were diluted in 495 μL of 1:1 Methanol/Water (final concentration of 100 μM, 50% MeOH). Then, 50 μL of this intermediate solution were diluted in 450 μL of 100 mM potassium phosphate buffer to a concentration of 10 μM (working solution, 5% MeOH). The NADPH regenerating system contains β-Nicotinamide adenine dinucleotide phosphate (Sigma, Cat. # N0505), Isocitric acid (Sigma, Cat. #11252) and Isocitric dehydrogenase (Sigma, Cat. #12002) at a final concentration of 1 unit/mL at incubation.
(§3) Human liver microsomes were obtained from BD Gentest (Cat. #452117) and mouse liver microsomes from Xenotech (Cat. # M1000), to a final concentration of 0.7 mg protein/mL. A volume of 10 μL of peptide solution and 80 μL of microsome solution were added to a 96-well plate and incubated for 10 min at 37° C. The reaction was started by the addition of 10 μL of NADPH regenerating system and stopped by the addition of 300 μL of stop solution (ACN at 4° C., including 100 ng/mL Tolbutamide and 100 ng/mL of Labetalol as internal standard) at different incubation times (0, 5, 10, 20, 30 and 60 min). Concentrations of test compound were quantified by LC-MS/MS methodologies (Shimadzu LC 20-AD/API4000) using peak area ratio of analyte/internal standard and the percent loss of parent compound was calculated under each time point to determine the half-life.

[3] = Mouse liver microsomal stability; type: in vitro ADME; details: mouse liver microsomes; for remaining at 20 min, 1 μM: read-out: % Remaining after 20 min; for remaining at 1 h, 1 μM: 60 min, read-out: % Remaining after 60 min; for half-life: peptide 1 μM
Experimental: as §2, §3

[4] = human liver microsomes, peptide 1 μM, read-out: t1/2

Binding to Foxp3 Ratio binding Peptide/p60 (fold change) (human FOXP3 (FOXP3-6His))	Foxp3-Runx1 Inhibition % inhibition (100 μM) [1]	Compound	remaining at 20 min, 1 μM ([2]; human liver microsomes)	remaining at 1 h, 1 μM ([2]; human liver microsomes)	half-life [2, 4]	remaining at 20 min, 1 μM [3]	remaining at 1 h, 1 μM [3]	half-life [3]	half-life ([2]; human, microsomes)
1.1 fold change	55.6%	15 (RDAQSFRKMWPFFAM) [compound 15]	–	–	–	–	–	–	–
–	–	CSCC[C@@H]1NC(=O)[C@H](C)NC(=O)[C@H](Cc2ccccc2)NC(=O)[C@H](Cc2ccccc2)NC(=O)[C@@H]2CCCN2C(=O)[C@H](Cc2c[nH]c3ccccc23)NC(=O)[C@H](CCSC)NC(=O)[C@H](CCCCN)NC(=O)[C@H](CCCNC(=N)N)NC(=O)[C@H](Cc2ccccc2)NC(=O)[C@H](C)NC(=O)[C@H](CCC(N)=O)NC(=O)[C@H](Cc2ccccc2)NC(=O)[C@@H](C)NC(=O)[C@H](CCCNC(=N)N)NCCCNC1=O [compound 52]	76.9%	40.1%	41.4 min	98.9%	48%	46.9 min	–
–	–	CSCC[C@@H]1NC(=O)[C@H](C)NC(=O)[C@H](Cc2ccccc2)NC(=O)[C@H](Cc2ccccc2)NC(=O)[C@@H]2CCCN2C(=O)[C@H](Cc2c[nH]c3ccccc23)NC(=O)[C@H](CCSC)NC(=O)[C@H](CCCCN)NC(=O)[C@H](CCCNC(=N)N)NC(=O)[C@H](Cc2ccccc2)NC(=O)[C@H](C)NC(=O)[C@H](CCC(N)=O)NC(=O)[C@H](Cc2ccccc2)NC(=O)[C@@H](C)NC(=O)[C@H](CCCNC(=N)N)NCCNC(=O)CNC1=O [compound 53]	32.9%	2.8%	–	57%	3.7%	12.3 min	11.1 min
–	–	CSCC[C@@H]1NC(=O)[C@H](C)NC(=O)[C@H](Cc2ccccc2)NC(=O)[C@H](Cc2ccccc2)NC(=O)[C@@H]2CCCN2C(=O)[C@H](Cc2c[nH]c3ccccc23)NC(=O)[C@H](CCSC)NC(=O)[C@H](CCCCN)NC(=O)[C@H](CCCNC(=N)N)NC(=O)[C@H](Cc2ccccc2)NC(=O)[C@H](C)NC(=O)[C@H](CCC(N)=O)NC(=O)[C@H](Cc2ccccc2)NC(=O)[C@@H](C)NC(=O)[C@H](CCCNC(=N)N)NCCOCCNC1=O [compound 54]	55.7%	11%	18.4 min	97.3%	30.1%	30.9 min	–
